Patent US6060516A, “N^1 -propargylhydrazines, N^2 -propargylhydrazines and their analogs for the treatment of depression, anxiety and neurodegeneration” (CV Technologies, Inc., priority 1998, dated 2000)

Experiments:
[1] = test system: valine, alanine and gamma-aminobutyric acid (GABA) concentrations in rat brain; assay: Brain valine, alanine and gamma-aminobutyric acid (GABA) concentrations; format: in vivo; conditions: for GABA / Valine: 2 × 75 μmol/kg per os
MAO-A = MAO-A inhibition ex vivo in DSP-4 treated mice (brain); design: species or system mouse
Method: The compounds were evaluated for ex vivo monoamine oxidase-A inhibiting activity using the radiochemical procedure of Lyles, G. A. and Callingham, B. A. (1982). […] Biochem. Pharmacol. 31: 1417-1424. Radiolabelled 5-hydroxytryptamine was used as a substrate for monoamine oxidase-A. The compounds of interest were either injected intraperitonealy in DMSO or administered by gavage in water for various periods. The animals were killed by decapitation and the brains and livers immediately removed and frozen until assayed for monoamine oxidase-A activity. Tissues were homogenized and appropriately diluted in buffer prior to incubation. Incubations proceeded at 37° C. for 10 minutes. Incubation was terminated by the addition of acid and the radiolabelled product (5-hydroxyindoleacetaldehyde and 5-hydroxyindoleacetic acid) was extracted and quantified by liquid scintillation counting procedures. Incubations were done in triplicate and incubations containing phenelzine were included for comparison. The percent inhibition of monoamine oxidase-A activity compared to controls containing no drug was calculated.
Neuroprotectant activity was evaluated by examining the prevention of DSP-4 induced noradrenaline depletion in mouse hippocampus as described in Yu, P. H., Davis, B. A., Fang, J. and Boulton, A. A. (1994), Neuroprotective effect of some monoamine oxidase-B inhibitors against DSP-4 induced noradrenaline depletion in the mouse hippocampus, J. Neurochem. 63: 1820-1828. Briefly, mice were injected (i.p.) with either 20% DMSO or potential neuroprotectants (10 mg/kg in 20% DMSO). One hour later they were injected with either water or DSP-4 (50 mg/kg in water). One week later the mice were killed and the brains removed and the hippocampus dissected out. The hippocampus was frozen and saved for estimation of noradrenaline and other aminergic neurotransmitters and their metabolites as in Sloley, B. D. and Goldberg J. I. (1991), Determination of γ-glutamyl conjugates of monoamines by means of high-performance liquid chromatography with electrochemical detection and application to gastropod tissues, J. Chromatog. 567: 49-56. The rest of the brain was frozen and retained for estimation of monoamine oxidase activities ex vivo as described earlier.

[2] = test system: serotonin uptake in rat striatal prisms; assay: Serotonin (5-HT) uptake inhibition in rat striatal prisms in vitro; format: biochemical
Method: CVT-P040 was evaluated for the ability to inhibit serotonin uptake in rat striatal prisms using the procedure of Martin, I. L., Baker, G. B. and Mitchell, P. R. (1978), The effect of viloxazine hydrochloride on the transport of noradrenaline, dopamine, 5-hydroxytryptamine and γ-aminobutyric acid in rat brain tissue Neuropharmacology 17: 421-423. Briefly, untreated rats were killed by guillotine decapitation, their brains removed, placed on an ice-cooled plate and the striatum was dissected out from the rest of the brain. The striatum was then chopped into 0.1×0.1×2 mm prisms using a Mcllwain tissue chopper and suspended in 5 volumes incubation medium containing 123 mM sodium chloride, 5 mM potassium chloride, 2.7 mM calcium chloride, 1.2 mM magnesium sulphate, 20 mM TRIS-HCl buffer (pH 7.5), 1 mM ascorbic acid, 10 mM glucose and 12.5 μM nialamide. The suspension was stored out of direct light and buried in ice. Aliquots (1 ml) of the tissue suspension were added to flasks containing 4 ml of incubation medium and this mixture was incubated for 15 min at 37° C. in a shaking water bath. Next, 10 µl of the appropriate chemical was added to each tube except the blanks and controls, followed by the addition of 10 μl of ^3 H-5-HT (final concentration 0.1 μM). The mixtures were incubated for 5 min at 37° C., then quickly filtered with a Millipore vacuum filter apparatus and rinsed two times with 5 ml warm (37° C.) incubation medium. Filters were transferred to scintillation vials and 10 ml Ready Safe scintillation cocktail was added to each. Radioactive content per tube was counted using a liquid scintillation spectrophotometer. Percent 5-HT uptake inhibition was calculated by applying the following equation: [formula]

[3] = test system: NA, DA, 5-HT, 5-HIAA and DOPAC concentrations in rat hypothalamus; assay: Rat hypothalamus amine and amine metabolite concentrations; format: in vivo
Method: The effects of various doses of CVT-P040 on the concentrations of hypothalamus amine neurotransmitters and their metabolites were evaluated by examining concentrations of noradrenaline (NA), dopamine (DA), 5-hydroxytryptamine (5-HT), 5-hydroxyindoleacetic acid (5-HIAA) and 3,4-dihydroxyphenylacetic acid (DOPAC) in rat hypothalami 5 hours after the injection of the drug. […] The brains were removed and divided in half. One half of the brain was frozen in isopentane on dry ice and retained for estimates of amino acid neurotransmitter concentrations. The other half had the hypothalamus removed and frozen on dry ice for later estimates of amines and their metabolites according to the method of Sloley, B. D. and Goldberg J. I. (1991), Determination of γ-glutamyl conjugates of monoamines by means of high-performance liquid chromatography with electrochemical detection and application to gastropod tissues, J. Chromatog. 567: 49-56. The rest of the brain was frozen on dry ice for ex vivo examination of MAO activity as described earlier.

[4] = test system: rat brain and liver monoamine oxidase-A; assay: Monoamine oxidase-A inhibiting activity ex vivo; format: in vivo
Method: Radiolabelled 5-hydroxytryptamine was used as a substrate for monoamine oxidase-A. The compounds of interest were either injected intraperitonealy in DMSO or administered by gavage in water for various periods. The animals were killed by decapitation and the brains and livers immediately removed and frozen until assayed for monoamine oxidase-A activity. Tissues were homogenized and appropriately diluted in buffer prior to incubation. Incubations proceeded at 37° C. for 10 minutes. Incubation was terminated by the addition of acid and the radiolabelled product (5-hydroxyindoleacetaldehyde and 5-hydroxyindoleacetic acid) was extracted and quantified by liquid scintillation counting procedures. Incubations were done in triplicate and incubations containing phenelzine were included for comparison. The percent inhibition of monoamine oxidase-A activity compared to controls containing no drug was calculated.
Values are the mean ± the standard error based on (n) determinations.
Oral doses were administered as 75 μmol/kg on day 1, 75 μmol/kg on
day 2 and the animals were killed 5 hours later.

[5] = brain, 5.75 μmol/kg, 5 hr, i.p. in 10% DMSO
[6] = brain, 150 μmol/kg, 5 hr, i.p. in 10% DMSO
[7] = brain, 2 × 75 μmol/kg per os (day 1 and day 2, killed 5 hours later)
[8] = liver, 5.75 μmol/kg, 5 hr, i.p. in 10% DMSO
[9] = liver, 2 × 75 μmol/kg per os (day 1 and day 2, killed 5 hours later)

## C#CCN(N)CCc1ccccc1 [CVT-P040, N^1 -propargylphenelzine]
[1]
  GABA: 329 ± 43 µg/g
  Valine: 25.4 ± 1.8 µg/g
MAO-A; 10 mg/kg i.p. then DSP-4 50 mg/kg, 20% DMSO control experiment
  MAO-A % Inhibition: 57.9 ± 2.9%
MAO-A; DSP-4 experiment, 10 mg/kg, in words
  preference for MAO-A inhibition: strong preference for MAO-A inhibition
[2]; 1 × 10^-4 M
  % Inhibition (serotonin uptake): 90.1 ± 3.3%
[2]; 1 × 10^-5 M
  % Inhibition (serotonin uptake): 50.2 ± 2.5%
[2]; 1 × 10^-6 M
  % Inhibition (serotonin uptake): 49.1 ± 4.3%
[3]; 0.58 μmol/kg, 5 hr, ip
  5-HIAA: 350 ± 28 ng/g
  5-HT: 652 ± 69 ng/g
  DA: 716 ± 82 ng/g
  DOPAC: 77 ± 9 ng/g
  NA: 1155 ± 81 ng/g
[3]; 5.75 μmol/kg, 5 hr, ip
  5-HIAA: 327 ± 26 ng/g
  5-HT: 634 ± 58 ng/g
  DA: 717 ± 85 ng/g
  DOPAC: 80 ng/g
  NA: 1332 ± 98 ng/g
[3]; 57.5 μmol/kg, 5 hr, ip
  5-HIAA: 294 ± 22 ng/g
  5-HT: 1324 ng/g
  DA: 753 ± 99 ng/g
  DOPAC: 49 ng/g
  NA: 1672 ± 82 ng/g
[3]; 150 μmol/kg, 5 hr, ip
  5-HIAA: 131 ± 8 ng/g
  5-HT: 1497 ng/g
  DA: 522 ± 28 ng/g
  DOPAC: 45 ± 4 ng/g
  NA: 2050 ± 202 ng/g
[3]; 173 μmol/kg, 5 hr, ip
  5-HIAA: 148 ± 10 ng/g
  5-HT: 1509 ng/g
  DA: 865 ± 19 ng/g
  DOPAC: 30 ng/g
  NA: 1867 ± 253 ng/g
[3]; 2 × 75 μmol/kg per os
  5-HIAA: 197 ng/g
  5-HT: 1215 ± 36 ng/g
  DA: 487 ± 47 ng/g
  DOPAC: 50 ± 3 ng/g
  NA: 2230 ± 101 ng/g
[3]; dose dependent, in words
  5-HIAA concentrations: significantly reduced 5-HIAA and DOPAC concentrations
  5-HT concentrations: significantly elevated 5-HT and NA concentrations
  DOPAC concentrations: significantly reduced 5-HIAA and DOPAC concentrations
  NA concentrations: significantly elevated 5-HT and NA concentrations
[3]; equivalent doses, in words
  reduction in 5-hydroxyindoleacetic acid concentrations compared with phenelzine: comparable to that determined with equivalent doses of phenelzine
[4]; brain, 0.58 μmol/kg, 5 hr, i.p. in 10% DMSO
  % Inhibition Monoamine Oxidase-A: 7.2 ± 5.1%
[4]; [5]
  % Inhibition Monoamine Oxidase-A: 9.1 ± 4.9%
[4]; brain, 57.5 μmol/kg, 5 hr, i.p. in 10% DMSO
  % Inhibition Monoamine Oxidase-A: 86.6 ± 6.7%
[4]; [6]
  % Inhibition Monoamine Oxidase-A: 96.7 ± 0.6%
[4]; brain, 173 μmol/kg, 5 hr, i.p. in 10% DMSO
  % Inhibition Monoamine Oxidase-A: 98.4 ± 0.1%
[4]; [7]
  % Inhibition Monoamine Oxidase-A: 96.9 ± 0.8%
[4]; liver, 0.58 μmol/kg, 5 hr, i.p. in 10% DMSO
  % Inhibition Monoamine Oxidase-A: -6.1 ± 4.4%
[4]; [8]
  % Inhibition Monoamine Oxidase-A: 43.7 ± 5.4%
[4]; liver, 57.5 μmol/kg, 5 hr, i.p. in 10% DMSO
  % Inhibition Monoamine Oxidase-A: 91.7 ± 2.3%
[4]; liver, 173 μmol/kg, 5 hr, i.p. in 10% DMSO
  % Inhibition Monoamine Oxidase-A: 97.7 ± 0.3%
[4]; [9]
  % Inhibition Monoamine Oxidase-A: 95.4 ± 0.7%

## C#CCN(CCc1ccccc1)NC(C)=O [CVT-P041, N^1 -propargyl-N^2 -acetylphenelzine]
[1]
  GABA: 300 ± 22 µg/g
  Valine: 26.4 ± 1.4 µg/g
MAO-A; 10 mg/kg then DSP-4 50 mg/kg, saline control experiment
  MAO-A % Inhibition: 4.3 ± 6.2%
[2]; 1 × 10^-4 M
  % Inhibition (serotonin uptake): 22.2 ± 4.6%
[3]; 150 μmol/kg, 5 hr, ip
  5-HIAA: 179 ± 6 ng/g
  5-HT: 1100 ng/g
  DA: 461 ± 34 ng/g
  DOPAC: 91 ± 6 ng/g
  NA: 2141 ± 86 ng/g
[3]; 2 × 75 μmol/kg per os
  5-HIAA: 228 ± 17 ng/g
  DOPAC: 50 ng/g
  NA: 1749 ng/g
[4]; [6]
  % Inhibition Monoamine Oxidase-A: 98.4 ± 0.0%
[4]; [7]
  % Inhibition Monoamine Oxidase-A: 92.9 ± 1.7%
[4]; [9]
  % Inhibition Monoamine Oxidase-A: 98.3 ± 0.2%

## NNCCc1ccccc1 [phenelzine, 1-(2-phenyl) ethylhydrazine, reference compound]
[1]
  GABA: 733 µg/g
  Valine: 24.3 ± 0.8 µg/g
[1]; phenelzine
  elevation of alanine levels: about 4 fold
[1]; phenelzine 150 pmol/kg (so in the source), in words
  brain GABA concentrations: caused elevations in brain GABA concentrations
[3]; 5.75 μmol/kg, 5 hr, ip
  5-HIAA: 334 ± 23 ng/g
  5-HT: 755 ng/g
  DA: 544 ± 66 ng/g
  DOPAC: 89 ± 7 ng/g
  NA: 1468 ± 119 ng/g
[3]; 150 μmol/kg, 5 hr, ip
  5-HIAA: 131 ng/g
  5-HT: 1583 ± 95 ng/g
  DA: 385 ng/g
  DOPAC: 51 ± 4 ng/g
  NA: 2113 ± 102 ng/g
[3]; 2 × 75 μmol/kg per os
  5-HIAA: 167 ng/g
  DOPAC: 54 ± 4 ng/g
  NA: 2148 ± 171 ng/g
[4]; [5]
  % Inhibition Monoamine Oxidase-A: 9.1 ± 5.3%
[4]; [6]
  % Inhibition Monoamine Oxidase-A: 97.2%
[4]; [7]
  % Inhibition Monoamine Oxidase-A: 96.5 ± 1.2%
[4]; [8]
  % Inhibition Monoamine Oxidase-A: 36.4 ± 5.3%
[4]; [9]
  % Inhibition Monoamine Oxidase-A: 97.7 ± 0.3%
